According to patent US20090029953A1, “18-METHYL-19-NOR-17-PREGN-4-ENE-21,17-CARBOLACTONES, AS WELL AS PHARMACEUTICAL PREPARATIONS THAT CONTAIN THE LATTER” (priority 2004, published 2009):

System: ovariectomized pregnant rats
Assay: pregnancy maintenance test in rats
Format: in vivo
Details: subcutaneous once daily from day 8 of pregnancy, with estrone 5 μg/kg/day
Excerpt: Executing the Pregnancy Maintenance Test in Rats:
In pregnant rats, removal of the corpora lutea or castration induces abortion. By exogenous supplying of progestins (gestagens) in combination with a suitable dose of estrogen, pregnancy can be maintained. The pregnancy maintenance test in ovariectomized rats serves to determine peripheral gestagenic activity of a compound.
Rats are paired up during the proestrus overnight. Mating is monitored on the morning of the following day by vaginal smear inspection. The presence of sperm is considered in this case as day 1 of the beginning of pregnancy. On day 8 of pregnancy, the animals are ovariectomized under ether anesthesia. […]
At the end of the test (day 15 or day 21), the animals are sacrificed under CO2 atmosphere, and live fetuses (fetuses with beating hearts) and implantation sites (early resorptions and dead fetuses including autolysis and atrophic placentas) in both uterine horns are counted. […] In uteri without fetuses or implantation sites, the number of nidation sites is determined by staining with 10% ammonium sulfide solution. The pregnancy maintenance rate is calculated as the quotient of the number of living fetuses and the total number of nidation sites (both resorbed and dead fetuses as well as nidation sites). […]

| SMILES | pregnancy-maintaining dose (ED50) [µg/kg/day] |
| --- | --- |
| CCC12CCC3C4CCC(=O)C=C4C4CC4C3C1C1CC1C21CCC(=O)O1 (stereo not drawn) [compound 3a, 18-Methyl-6α,7α-15β,16β-dimethylene-3-oxo-19-nor-17-pregn-4-ene-21,17-carbolactone] | 120 |
| C[C@]12CCC(=O)C=C1[C@@H]1C[C@@H]1[C@H]1[C@@H]3[C@@H]4C[C@@H]4[C@@]4(CCC(=O)O4)[C@@]3(C)CC[C@@H]12 [drospirenone, 6β,7β-15β,16β-dimethylene-3-oxo-17-pregn-4-ene-21,17β-carbolactone] | 3500 |
